In ChEMBL document CHEMBL2375330, “Synthesis of pyrazole encompassing 2-pyridone derivatives as antibacterial agents” (Bioorg Med Chem Lett, 2013) one finds MIC and IC50 data, which are given here for 11 molecules.

Converted amounts (≈) assume the structure as drawn.

For the first assay, the system named is Escherichia coli. Briefly: microbe, parasite or virus in culture. In kind it is functional. The conditions noted are these: MTCC 443.
Description: Antibacterial activity against Escherichia coli MTCC 443 by broth dilution method
The molecule `COc1cc(-c2c(C#N)c(N)n(/N=C/c3cn(-c4ccccc4)nc3-c3ccccc3)c(=O)c2C#N)cc(OC)c1OC` yielded an MIC of 500 µg/mL (≈ 875 µM).
As for `N#Cc1c(-c2ccccc2)c(C#N)c(=O)n(/N=C/c2cn(-c3ccccc3)nc2-c2ccccc2)c1N`, the MIC was found to be 250 µg/mL (≈ 519 µM).
Regarding `N#Cc1c(-c2ccc(O)cc2)c(C#N)c(=O)n(/N=C/c2cn(-c3ccccc3)nc2-c2ccccc2)c1N`, the MIC came to 500 µg/mL (≈ 1000 µM).
As to `N#Cc1c(-c2ccc(F)cc2)c(C#N)c(=O)n(/N=C/c2cn(-c3ccccc3)nc2-c2ccccc2)c1N`, the MIC came to 12.5 µg/mL (≈ 25 µM).
`COc1ccc(-c2c(C#N)c(N)n(/N=C/c3cn(-c4ccccc4)nc3-c3ccccc3)c(=O)c2C#N)cc1` had an MIC of 500 µg/mL (≈ 977 µM).
The same measure, in the same setting: the figure for `N#Cc1c(-c2ccc(C(F)(F)F)cc2)c(C#N)c(=O)n(/N=C/c2cn(-c3ccccc3)nc2-c2ccccc2)c1N` is 250 µg/mL (≈ 455 µM); for `O=C(O)c1cn(C2CC2)c2cc(N3CCNCC3)c(F)cc2c1=O` [CIPROFLOXACIN] it is 25 µg/mL (≈ 75.4 µM).
In the case of `N#Cc1c(-c2ccc(Br)cc2)c(C#N)c(=O)n(/N=C/c2cn(-c3ccccc3)nc2-c2ccccc2)c1N`, the MIC stood at 500 µg/mL (≈ 892 µM).
The same measure, in the same setting: then `N#Cc1c(-c2ccccc2C(F)(F)F)c(C#N)c(=O)n(/N=C/c2cn(-c3ccccc3)nc2-c2ccccc2)c1N`, with 100 µg/mL (≈ 182 µM).
For the molecule `Cc1ccc(-c2c(C#N)c(N)n(/N=C/c3cn(-c4ccccc4)nc3-c3ccccc3)c(=O)c2C#N)cc1`, the MIC stood at 500 µg/mL (≈ 1010 µM).
In turn, `N#Cc1c(-c2ccccc2[N+](=O)[O-])c(C#N)c(=O)n(/N=C/c2cn(-c3ccccc3)nc2-c2ccccc2)c1N` came in with an MIC of 25 µg/mL (≈ 47.5 µM).

The subject of the next assay is HeLa. Put plainly: Cytotoxicity against human HeLa cells by MTT assay. In kind it is cell-based.
Details: not given
On the technique in general: Formazan colour is commonly taken as a measure of viable cells.
As for `COc1cc(-c2c(C#N)c(N)n(/N=C/c3cn(-c4ccccc4)nc3-c3ccccc3)c(=O)c2C#N)cc(OC)c1OC`, the IC50 (in general, the concentration that inhibits the measured activity by half) is > 200 µg/mL.
`N#Cc1c(-c2ccccc2)c(C#N)c(=O)n(/N=C/c2cn(-c3ccccc3)nc2-c2ccccc2)c1N`: the IC50 is > 200 µg/mL.
As to `N#Cc1c(-c2ccc(O)cc2)c(C#N)c(=O)n(/N=C/c2cn(-c3ccccc3)nc2-c2ccccc2)c1N`, the IC50 was > 200 µg/mL.
Same read-out and setting: the figure for `N#Cc1c(-c2ccc(F)cc2)c(C#N)c(=O)n(/N=C/c2cn(-c3ccccc3)nc2-c2ccccc2)c1N` is > 200 µg/mL; for `COc1ccc(-c2c(C#N)c(N)n(/N=C/c3cn(-c4ccccc4)nc3-c3ccccc3)c(=O)c2C#N)cc1` it is > 200 µg/mL; for `N#Cc1c(-c2ccc(C(F)(F)F)cc2)c(C#N)c(=O)n(/N=C/c2cn(-c3ccccc3)nc2-c2ccccc2)c1N` it is > 200 µg/mL.
Regarding `N#Cc1c(-c2ccc(Br)cc2)c(C#N)c(=O)n(/N=C/c2cn(-c3ccccc3)nc2-c2ccccc2)c1N`, the IC50 was > 200 µg/mL.
For `N#Cc1c(-c2ccccc2C(F)(F)F)c(C#N)c(=O)n(/N=C/c2cn(-c3ccccc3)nc2-c2ccccc2)c1N`, the IC50 was > 200 µg/mL.
Turning to `Cc1ccc(-c2c(C#N)c(N)n(/N=C/c3cn(-c4ccccc4)nc3-c3ccccc3)c(=O)c2C#N)cc1`, the IC50 is > 200 µg/mL.
Still for that read-out and setting: then `N#Cc1c(-c2ccccc2[N+](=O)[O-])c(C#N)c(=O)n(/N=C/c2cn(-c3ccccc3)nc2-c2ccccc2)c1N`, with > 200 µg/mL.

The next assay has as its system Streptococcus pyogenes. Briefly: microbe, parasite or virus in culture. In kind it is functional. The conditions noted are these: MTCC 442.
Description: Antibacterial activity against Streptococcus pyogenes MTCC 442 by broth dilution method
In the case of `COc1cc(-c2c(C#N)c(N)n(/N=C/c3cn(-c4ccccc4)nc3-c3ccccc3)c(=O)c2C#N)cc(OC)c1OC`, the MIC came to 250 µg/mL (≈ 437 µM).
Still for that read-out and setting: the figure for `N#Cc1c(-c2ccccc2)c(C#N)c(=O)n(/N=C/c2cn(-c3ccccc3)nc2-c2ccccc2)c1N` is 500 µg/mL (≈ 1040 µM).
With `N#Cc1c(-c2ccc(O)cc2)c(C#N)c(=O)n(/N=C/c2cn(-c3ccccc3)nc2-c2ccccc2)c1N`, the MIC came out at 500 µg/mL (≈ 1000 µM).
In turn, `N#Cc1c(-c2ccc(F)cc2)c(C#N)c(=O)n(/N=C/c2cn(-c3ccccc3)nc2-c2ccccc2)c1N` displayed an MIC of 100 µg/mL (≈ 200 µM).
For the molecule `COc1ccc(-c2c(C#N)c(N)n(/N=C/c3cn(-c4ccccc4)nc3-c3ccccc3)c(=O)c2C#N)cc1`, the MIC was 250 µg/mL (≈ 489 µM).
On the same count and under the same terms, then `N#Cc1c(-c2ccc(C(F)(F)F)cc2)c(C#N)c(=O)n(/N=C/c2cn(-c3ccccc3)nc2-c2ccccc2)c1N`, with 250 µg/mL (≈ 455 µM).
`O=C(O)c1cn(C2CC2)c2cc(N3CCNCC3)c(F)cc2c1=O` [CIPROFLOXACIN] displayed an MIC of 50 µg/mL (≈ 151 µM).
The molecule `N#Cc1c(-c2ccc(Br)cc2)c(C#N)c(=O)n(/N=C/c2cn(-c3ccccc3)nc2-c2ccccc2)c1N` returned an MIC of 100 µg/mL (≈ 178 µM).
As to `N#Cc1c(-c2ccccc2C(F)(F)F)c(C#N)c(=O)n(/N=C/c2cn(-c3ccccc3)nc2-c2ccccc2)c1N`, the MIC was determined as 250 µg/mL (≈ 455 µM).
The molecule `Cc1ccc(-c2c(C#N)c(N)n(/N=C/c3cn(-c4ccccc4)nc3-c3ccccc3)c(=O)c2C#N)cc1` yielded an MIC of 250 µg/mL (≈ 504 µM).
On the same count and under the same terms, then `N#Cc1c(-c2ccccc2[N+](=O)[O-])c(C#N)c(=O)n(/N=C/c2cn(-c3ccccc3)nc2-c2ccccc2)c1N`, with 250 µg/mL (≈ 475 µM).

The subject of a further assay is Pseudomonas aeruginosa. Put plainly: microbe, parasite or virus in culture. In kind it is functional. The following applies: MTCC 1688.
Description: Antibacterial activity against Pseudomonas aeruginosa MTCC 1688 by broth dilution method
The molecule `COc1cc(-c2c(C#N)c(N)n(/N=C/c3cn(-c4ccccc4)nc3-c3ccccc3)c(=O)c2C#N)cc(OC)c1OC` showed an MIC of 250 µg/mL (≈ 437 µM).
In the case of `N#Cc1c(-c2ccccc2)c(C#N)c(=O)n(/N=C/c2cn(-c3ccccc3)nc2-c2ccccc2)c1N`, the MIC is 500 µg/mL (≈ 1040 µM).
Turning to `N#Cc1c(-c2ccc(O)cc2)c(C#N)c(=O)n(/N=C/c2cn(-c3ccccc3)nc2-c2ccccc2)c1N`, the MIC was found to be 500 µg/mL (≈ 1000 µM).
Molecule `N#Cc1c(-c2ccc(F)cc2)c(C#N)c(=O)n(/N=C/c2cn(-c3ccccc3)nc2-c2ccccc2)c1N` registered an MIC of 25 µg/mL (≈ 50 µM).
As for `COc1ccc(-c2c(C#N)c(N)n(/N=C/c3cn(-c4ccccc4)nc3-c3ccccc3)c(=O)c2C#N)cc1`, the MIC is 500 µg/mL (≈ 977 µM).
Turning to `N#Cc1c(-c2ccc(C(F)(F)F)cc2)c(C#N)c(=O)n(/N=C/c2cn(-c3ccccc3)nc2-c2ccccc2)c1N`, the MIC was found to be 25 µg/mL (≈ 45.5 µM).
On the same count and under the same terms, then `N#Cc1c(-c2ccc(Br)cc2)c(C#N)c(=O)n(/N=C/c2cn(-c3ccccc3)nc2-c2ccccc2)c1N`, with 100 µg/mL (≈ 178 µM); and `N#Cc1c(-c2ccccc2C(F)(F)F)c(C#N)c(=O)n(/N=C/c2cn(-c3ccccc3)nc2-c2ccccc2)c1N`, with 250 µg/mL (≈ 455 µM); and `Cc1ccc(-c2c(C#N)c(N)n(/N=C/c3cn(-c4ccccc4)nc3-c3ccccc3)c(=O)c2C#N)cc1`, with 250 µg/mL (≈ 504 µM).
Consider `N#Cc1c(-c2ccccc2[N+](=O)[O-])c(C#N)c(=O)n(/N=C/c2cn(-c3ccccc3)nc2-c2ccccc2)c1N`, for which the MIC is 100 µg/mL (≈ 190 µM).

For the next assay, the system named is Staphylococcus aureus. Briefly: Antibacterial activity against Staphylococcus aureus MTCC 96 by broth dilution method. In kind it is functional.
Details: not given
Background: In broth dilution the organism is exposed to a series of concentrations in liquid medium.
Consider `COc1cc(-c2c(C#N)c(N)n(/N=C/c3cn(-c4ccccc4)nc3-c3ccccc3)c(=O)c2C#N)cc(OC)c1OC`, for which the MIC was determined as 500 µg/mL (≈ 875 µM).
Same read-out and setting: then `N#Cc1c(-c2ccccc2)c(C#N)c(=O)n(/N=C/c2cn(-c3ccccc3)nc2-c2ccccc2)c1N`, with 500 µg/mL (≈ 1040 µM); and `N#Cc1c(-c2ccc(O)cc2)c(C#N)c(=O)n(/N=C/c2cn(-c3ccccc3)nc2-c2ccccc2)c1N`, with 500 µg/mL (≈ 1000 µM); and `N#Cc1c(-c2ccc(F)cc2)c(C#N)c(=O)n(/N=C/c2cn(-c3ccccc3)nc2-c2ccccc2)c1N`, with 12.5 µg/mL (≈ 25 µM).
Same read-out and setting: the figure for `COc1ccc(-c2c(C#N)c(N)n(/N=C/c3cn(-c4ccccc4)nc3-c3ccccc3)c(=O)c2C#N)cc1` is 500 µg/mL (≈ 977 µM); for `N#Cc1c(-c2ccc(C(F)(F)F)cc2)c(C#N)c(=O)n(/N=C/c2cn(-c3ccccc3)nc2-c2ccccc2)c1N` it is 25 µg/mL (≈ 45.5 µM); for `O=C(O)c1cn(C2CC2)c2cc(N3CCNCC3)c(F)cc2c1=O` [CIPROFLOXACIN] it is 50 µg/mL (≈ 151 µM).
Still for that read-out and setting: the figure for `N#Cc1c(-c2ccc(Br)cc2)c(C#N)c(=O)n(/N=C/c2cn(-c3ccccc3)nc2-c2ccccc2)c1N` is 12.5 µg/mL (≈ 22.3 µM).
As for `N#Cc1c(-c2ccccc2C(F)(F)F)c(C#N)c(=O)n(/N=C/c2cn(-c3ccccc3)nc2-c2ccccc2)c1N`, the MIC was found to be 100 µg/mL (≈ 182 µM).
In the case of `Cc1ccc(-c2c(C#N)c(N)n(/N=C/c3cn(-c4ccccc4)nc3-c3ccccc3)c(=O)c2C#N)cc1`, the MIC stood at 500 µg/mL (≈ 1010 µM).
As to `N#Cc1c(-c2ccccc2[N+](=O)[O-])c(C#N)c(=O)n(/N=C/c2cn(-c3ccccc3)nc2-c2ccccc2)c1N`, the MIC came to 25 µg/mL (≈ 47.5 µM).

The test system of a further assay is NIH3T3. Put plainly: Cytotoxicity against mouse NIH/3T3 cells by MTT assay. In kind it is cell-based.
Details: not given
The molecule `COc1cc(-c2c(C#N)c(N)n(/N=C/c3cn(-c4ccccc4)nc3-c3ccccc3)c(=O)c2C#N)cc(OC)c1OC` displayed a concentration for half-maximal inhibition (IC50) of 64 µg/mL (≈ 112 µM).
On the same count and under the same terms, then `N#Cc1c(-c2ccccc2)c(C#N)c(=O)n(/N=C/c2cn(-c3ccccc3)nc2-c2ccccc2)c1N`, with 180 µg/mL (≈ 374 µM); and `N#Cc1c(-c2ccc(O)cc2)c(C#N)c(=O)n(/N=C/c2cn(-c3ccccc3)nc2-c2ccccc2)c1N`, with 110 µg/mL (≈ 221 µM).
On to `N#Cc1c(-c2ccc(F)cc2)c(C#N)c(=O)n(/N=C/c2cn(-c3ccccc3)nc2-c2ccccc2)c1N`, for which the IC50 was > 200 µg/mL.
On the same count and under the same terms, the figure for `COc1ccc(-c2c(C#N)c(N)n(/N=C/c3cn(-c4ccccc4)nc3-c3ccccc3)c(=O)c2C#N)cc1` is 50 µg/mL (≈ 97.7 µM).
Take `N#Cc1c(-c2ccc(C(F)(F)F)cc2)c(C#N)c(=O)n(/N=C/c2cn(-c3ccccc3)nc2-c2ccccc2)c1N`: the IC50 was > 200 µg/mL.
Take `N#Cc1c(-c2ccc(Br)cc2)c(C#N)c(=O)n(/N=C/c2cn(-c3ccccc3)nc2-c2ccccc2)c1N`: the IC50 was > 200 µg/mL.
Consider `N#Cc1c(-c2ccccc2C(F)(F)F)c(C#N)c(=O)n(/N=C/c2cn(-c3ccccc3)nc2-c2ccccc2)c1N`, for which the IC50 came out at 56 µg/mL (≈ 102 µM).
`Cc1ccc(-c2c(C#N)c(N)n(/N=C/c3cn(-c4ccccc4)nc3-c3ccccc3)c(=O)c2C#N)cc1` had an IC50 of 98 µg/mL (≈ 198 µM).
Still for that read-out and setting: then `N#Cc1c(-c2ccccc2[N+](=O)[O-])c(C#N)c(=O)n(/N=C/c2cn(-c3ccccc3)nc2-c2ccccc2)c1N`, with > 200 µg/mL.
